Test results published in ChEMBL document CHEMBL1201862, “PubChem BioAssay data set” (2004).
The source made the active and inactive calls.

Experiments:
[1] = molecular target: Peroxisome proliferator-activated receptor gamma/Nuclear receptor corepressor 2 (Homo sapiens, UniProt P37231+Q9Y618); experiment: Counterscreen for NR2E3 inverse agonists: TR-FRET-based biochemical high throughput dose response assay to identify inverse agonists of the interaction between peroxisome proliferator-activated receptor gamma (PPARg) and nuclear receptor co-repressor 2 (NCOR2).; assay type: functional
[2] = molecular target: Photoreceptor-specific nuclear receptor (Homo sapiens, UniProt Q9Y5X4); experiment: ligands suppressing NR2E3 nuclear receptor activity – biochemical, TR-FRET, dose response (AID 463256); assay type: functional
Photoreceptor-specific nuclear receptor, sequence (Q9Y5X4 whole entry): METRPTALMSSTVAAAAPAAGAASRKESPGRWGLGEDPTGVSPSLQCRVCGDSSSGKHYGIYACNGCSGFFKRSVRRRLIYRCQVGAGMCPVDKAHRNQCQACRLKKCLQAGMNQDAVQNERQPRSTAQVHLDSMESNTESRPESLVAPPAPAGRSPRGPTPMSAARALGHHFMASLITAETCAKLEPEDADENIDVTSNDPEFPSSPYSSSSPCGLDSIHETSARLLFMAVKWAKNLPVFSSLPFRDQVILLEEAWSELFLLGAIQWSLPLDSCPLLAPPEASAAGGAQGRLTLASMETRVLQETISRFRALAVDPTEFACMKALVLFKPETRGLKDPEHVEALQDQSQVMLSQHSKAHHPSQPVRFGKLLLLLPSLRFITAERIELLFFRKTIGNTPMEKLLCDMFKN

[3] = molecular target: Tyrosyl-DNA phosphodiesterase 2 (Homo sapiens, UniProt O95551); experiment: potency against TDP2 phosphodiesterase activity – biochemical, epi absorbance, IC50, dose response (AID 743297)
Tyrosyl-DNA phosphodiesterase 2, sequence (O95551 whole entry): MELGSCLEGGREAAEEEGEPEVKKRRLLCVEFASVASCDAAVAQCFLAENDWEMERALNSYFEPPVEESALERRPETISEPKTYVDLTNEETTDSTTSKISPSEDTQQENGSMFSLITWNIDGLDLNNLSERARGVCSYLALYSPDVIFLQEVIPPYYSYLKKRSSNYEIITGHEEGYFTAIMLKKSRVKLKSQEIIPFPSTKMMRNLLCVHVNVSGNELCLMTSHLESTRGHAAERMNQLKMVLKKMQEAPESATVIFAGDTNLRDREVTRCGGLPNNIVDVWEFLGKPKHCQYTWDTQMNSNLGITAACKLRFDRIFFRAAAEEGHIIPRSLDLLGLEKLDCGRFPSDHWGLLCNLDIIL

[4] = test system: Streptococcus sp. 'group A'; experiment: Streptococcus pyogenes SK(-)GAS viability under kanamycin – luminescence, BacTiterGlo, confirmation, counter-screen for streptokinase expression inhibitor project, dose response (AID 1900); assay type: functional, organism-based
[5] = molecular target: Voltage-gated inwardly rectifying potassium channel KCNH2 (Homo sapiens, UniProt Q12809); experiment: concentration-dependent hERG rescue from blockers – cell-based, thallium flux, dose response (AID 2121); assay type: ADME
Voltage-gated inwardly rectifying potassium channel KCNH2, sequence (Q12809 whole entry): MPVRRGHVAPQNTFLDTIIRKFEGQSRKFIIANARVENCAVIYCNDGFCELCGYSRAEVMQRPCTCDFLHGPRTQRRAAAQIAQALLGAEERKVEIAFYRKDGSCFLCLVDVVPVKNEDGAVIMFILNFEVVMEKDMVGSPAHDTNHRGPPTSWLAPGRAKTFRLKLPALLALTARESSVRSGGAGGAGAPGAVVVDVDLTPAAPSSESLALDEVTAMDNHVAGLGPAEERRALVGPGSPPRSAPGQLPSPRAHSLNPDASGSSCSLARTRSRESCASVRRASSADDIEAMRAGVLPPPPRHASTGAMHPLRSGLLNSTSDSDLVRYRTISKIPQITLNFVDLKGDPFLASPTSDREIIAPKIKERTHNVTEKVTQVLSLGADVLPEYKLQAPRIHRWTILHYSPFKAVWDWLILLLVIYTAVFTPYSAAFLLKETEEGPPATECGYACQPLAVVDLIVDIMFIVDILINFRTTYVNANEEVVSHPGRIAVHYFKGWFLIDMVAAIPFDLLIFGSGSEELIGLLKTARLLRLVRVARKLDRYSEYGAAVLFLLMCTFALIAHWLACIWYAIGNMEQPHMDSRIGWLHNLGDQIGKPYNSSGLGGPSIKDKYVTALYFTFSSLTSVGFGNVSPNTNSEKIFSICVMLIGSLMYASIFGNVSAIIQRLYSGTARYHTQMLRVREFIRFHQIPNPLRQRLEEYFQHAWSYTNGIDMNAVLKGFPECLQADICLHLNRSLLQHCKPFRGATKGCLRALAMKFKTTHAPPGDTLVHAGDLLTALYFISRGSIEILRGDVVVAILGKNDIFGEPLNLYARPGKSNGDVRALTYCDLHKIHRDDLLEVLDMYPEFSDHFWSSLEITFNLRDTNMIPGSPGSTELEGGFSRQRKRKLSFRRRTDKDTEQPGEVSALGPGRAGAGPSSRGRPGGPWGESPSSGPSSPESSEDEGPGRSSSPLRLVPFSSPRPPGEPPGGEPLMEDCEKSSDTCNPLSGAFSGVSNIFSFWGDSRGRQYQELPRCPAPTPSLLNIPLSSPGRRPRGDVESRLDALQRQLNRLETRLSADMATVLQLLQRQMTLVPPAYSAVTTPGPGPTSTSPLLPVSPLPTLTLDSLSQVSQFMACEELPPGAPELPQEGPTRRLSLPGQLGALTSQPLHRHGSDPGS

Streptococcus = experiment: GAS UMAA2166 growth inhibition – luminescence, BacTiterGlo, counter-screen for streptokinase expression inhibitor project, dose response (AID 1915); assay type: functional, organism-based;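 also: potency for reduction of bacterial viability or growth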
[6] = Late stage counterscreen results from the probe development effort to identify activators of signal transducer and activator of transcription 1 (STAT1): luminescence-based cell-based dose response assay to identify cytotoxic compounds.; assay type: functional
Galanin receptor type 2 = Galanin receptor type 2 (Homo sapiens, UniProt O43603); experiment: Dose Response cell-based high-throughput screening assay to identify antagonists of galanin receptor 2 (GALR2). [Related pubchem assays: 828, 866 ]; assay type: functional
Galanin receptor type 2, sequence (O43603 whole entry): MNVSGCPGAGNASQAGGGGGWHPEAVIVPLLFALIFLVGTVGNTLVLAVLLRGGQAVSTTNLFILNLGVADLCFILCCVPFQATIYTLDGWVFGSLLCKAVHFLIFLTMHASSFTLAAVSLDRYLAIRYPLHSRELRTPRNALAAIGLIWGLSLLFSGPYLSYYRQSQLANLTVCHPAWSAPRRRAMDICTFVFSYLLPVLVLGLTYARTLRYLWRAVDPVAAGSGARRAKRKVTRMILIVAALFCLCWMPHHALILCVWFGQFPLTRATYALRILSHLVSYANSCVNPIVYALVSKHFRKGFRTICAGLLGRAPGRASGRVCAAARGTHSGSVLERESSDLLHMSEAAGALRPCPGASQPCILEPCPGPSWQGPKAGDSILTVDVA

[7] = M. tuberculosis growth inhibition, HTS (AID 449762); assay type: functional
Aspartyl aminopeptidase = Aspartyl aminopeptidase (Plasmodium falciparum 3D7, UniProt Q8I2J3); experiment: Counterscreen for inhibitors of M1 and M17 aminopeptidases: QFRET-based biochemical high throughput dose response assay for inhibitors of the Plasmodium falciparum M18 Aspartyl Aminopeptidase (PFM18AAP). [Related PubChem assays: 1619 (Screening assay (M17LAP inhibitors).), 1445 (Screening assay (M1AAP inhibitors).)]
Leucine aminopeptidase = molecular target: T1, Leucine aminopeptidase (Plasmodium falciparum 3D7, UniProt Q8IL11); experiment: P. falciparum M17LAP inhibitors, primary screen, biochemical, fluorogenic H-Leu-NHMec substrate, 1536-well (AID 1619); assay type: functional
T1 sequence (Q8IL11 whole entry): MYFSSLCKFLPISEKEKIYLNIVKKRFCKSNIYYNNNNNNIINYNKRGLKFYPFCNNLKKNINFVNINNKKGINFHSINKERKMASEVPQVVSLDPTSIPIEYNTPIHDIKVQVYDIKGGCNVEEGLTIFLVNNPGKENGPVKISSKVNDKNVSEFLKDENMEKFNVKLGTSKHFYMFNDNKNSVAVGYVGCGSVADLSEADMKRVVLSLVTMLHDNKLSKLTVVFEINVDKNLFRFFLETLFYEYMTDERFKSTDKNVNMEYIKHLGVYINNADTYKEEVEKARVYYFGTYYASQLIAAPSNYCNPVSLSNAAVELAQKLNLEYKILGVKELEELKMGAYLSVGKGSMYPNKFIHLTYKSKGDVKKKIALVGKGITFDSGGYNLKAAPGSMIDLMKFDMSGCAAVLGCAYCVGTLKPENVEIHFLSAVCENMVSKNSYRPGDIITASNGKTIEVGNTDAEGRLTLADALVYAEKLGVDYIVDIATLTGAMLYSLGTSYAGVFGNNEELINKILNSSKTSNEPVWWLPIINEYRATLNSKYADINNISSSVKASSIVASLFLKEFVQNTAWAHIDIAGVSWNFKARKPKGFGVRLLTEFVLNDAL

Procathepsin L = Procathepsin L (Homo sapiens, UniProt P07711); experiment: CTSL1 protease inhibition – biochemical, QFRET, 1536-well, counter-screen for M1/M17 aminopeptidase inhibitor project, dose response (AID 2214)
Procathepsin L, sequence (P07711 whole entry): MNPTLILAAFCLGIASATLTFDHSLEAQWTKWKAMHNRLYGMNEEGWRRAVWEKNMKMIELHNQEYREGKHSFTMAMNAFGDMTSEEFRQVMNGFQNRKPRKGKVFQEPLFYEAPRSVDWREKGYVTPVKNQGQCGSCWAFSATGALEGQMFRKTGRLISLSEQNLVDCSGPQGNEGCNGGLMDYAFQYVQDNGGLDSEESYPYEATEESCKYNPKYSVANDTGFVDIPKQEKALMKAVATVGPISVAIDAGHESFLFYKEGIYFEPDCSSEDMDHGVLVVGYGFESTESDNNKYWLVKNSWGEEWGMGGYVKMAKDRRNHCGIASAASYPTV

[8] = molecular target: Neuropeptide Y receptor type 2 (Homo sapiens, UniProt P49146); experiment: IC50 for human NPY-Y2 blockade – cell-based, counter-screen for NPY-Y1 antagonist project, dose response (AID 1278); assay type: functional
Neuropeptide Y receptor type 2, sequence (P49146 whole entry): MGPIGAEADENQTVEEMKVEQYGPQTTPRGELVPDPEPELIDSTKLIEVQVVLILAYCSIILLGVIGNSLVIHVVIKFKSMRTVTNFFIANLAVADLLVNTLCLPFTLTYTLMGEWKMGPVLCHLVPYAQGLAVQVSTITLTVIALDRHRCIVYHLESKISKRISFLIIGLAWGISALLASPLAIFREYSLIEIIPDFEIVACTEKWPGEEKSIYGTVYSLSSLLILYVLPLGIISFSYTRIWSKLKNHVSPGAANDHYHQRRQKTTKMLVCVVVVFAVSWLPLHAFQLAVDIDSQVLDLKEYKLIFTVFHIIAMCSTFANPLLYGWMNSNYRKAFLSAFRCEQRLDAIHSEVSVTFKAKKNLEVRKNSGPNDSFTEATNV

[9] = molecular target: Sphingosine 1-phosphate receptor 3 (Homo sapiens, UniProt Q99500); experiment: Dose response cell-based high throughput screening assay for antagonists of the Sphingosine 1-Phosphate Receptor 3 (S1P3). [Related pubchem assays: 1429, 485 ]; assay type: functional
Sphingosine 1-phosphate receptor 3, sequence (Q99500 whole entry): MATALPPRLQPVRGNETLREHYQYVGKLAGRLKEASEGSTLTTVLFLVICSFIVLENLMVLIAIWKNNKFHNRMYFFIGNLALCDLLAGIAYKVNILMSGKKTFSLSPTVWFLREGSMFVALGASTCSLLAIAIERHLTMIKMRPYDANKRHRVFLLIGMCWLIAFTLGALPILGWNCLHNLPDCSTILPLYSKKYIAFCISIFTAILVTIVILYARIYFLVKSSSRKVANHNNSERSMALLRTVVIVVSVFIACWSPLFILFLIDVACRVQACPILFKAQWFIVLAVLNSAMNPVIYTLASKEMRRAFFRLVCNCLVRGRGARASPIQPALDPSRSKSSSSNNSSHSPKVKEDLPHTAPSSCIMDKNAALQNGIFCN

[10] = molecular target: 5-hydroxytryptamine receptor 1E (Homo sapiens, UniProt P28566); experiment: Counterscreen assay for S1P3 antagonists: Dose response cell-based high throughput screening assay to identify antagonists of the 5-Hydroxytryptamine Receptor Subtype 1E (5HT1E). [Related pubchem assays: 1429, 485 ]; assay type: functional
5-hydroxytryptamine receptor 1E, sequence (P28566 whole entry): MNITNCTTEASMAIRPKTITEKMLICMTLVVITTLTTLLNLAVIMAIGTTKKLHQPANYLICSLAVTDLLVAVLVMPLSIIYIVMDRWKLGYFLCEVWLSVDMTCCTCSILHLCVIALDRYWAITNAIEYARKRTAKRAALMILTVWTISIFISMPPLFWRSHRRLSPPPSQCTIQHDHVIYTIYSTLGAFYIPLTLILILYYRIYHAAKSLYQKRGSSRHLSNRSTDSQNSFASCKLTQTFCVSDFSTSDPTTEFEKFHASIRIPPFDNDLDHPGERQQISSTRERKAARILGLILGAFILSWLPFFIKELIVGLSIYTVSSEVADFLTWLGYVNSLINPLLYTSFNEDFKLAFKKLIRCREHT

Bcl-2-related protein A1 [11] = molecular target: T2, Bcl-2-related protein A1 (Mus musculus, UniProt Q07440); experiment: small-molecule antagonists of Bfl-1/BH3 interaction – biochemical, TR-FRET, mouse Bfl-1, confirmation (AID 621);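 also: TR-FRET binding of GST-Bfl-1 to FITC-labelled Bid peptide via terbium antibody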
T2 sequence (Q07440 whole entry): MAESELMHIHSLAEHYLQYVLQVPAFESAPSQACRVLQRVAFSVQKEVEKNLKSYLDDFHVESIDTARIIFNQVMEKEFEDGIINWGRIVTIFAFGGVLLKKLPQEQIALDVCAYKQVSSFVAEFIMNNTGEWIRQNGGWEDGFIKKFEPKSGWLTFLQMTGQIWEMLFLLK

Bcl-2-related protein A1 [12] = molecular target: T2, Bcl-2-related protein A1; experiment: Bfl-1 binding inhibitors, SAR follow-up, biochemical, fluorescence polarization (AID 1070)
[13] = antiviral protection against BTV-induced cell death – arbovirus, BSR cells, confirmation (AID 1250); assay type: functional;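 also: protection from viral cytopathic effect measured as cell viability by ATP luminescence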
14-3-3 protein gamma = 14-3-3 protein gamma (Homo sapiens, UniProt P61981); experiment: modulators of 14-3-3 gamma client binding – dose response (AID 711); assay type: functional
14-3-3 protein gamma, sequence (P61981 whole entry): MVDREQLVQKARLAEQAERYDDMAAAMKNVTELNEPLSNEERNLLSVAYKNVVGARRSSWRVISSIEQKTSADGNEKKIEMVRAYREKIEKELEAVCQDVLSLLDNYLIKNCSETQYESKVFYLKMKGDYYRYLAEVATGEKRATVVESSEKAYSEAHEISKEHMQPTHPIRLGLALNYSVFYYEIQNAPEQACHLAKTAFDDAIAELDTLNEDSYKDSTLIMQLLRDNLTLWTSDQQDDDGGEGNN

Troponin, cardiac muscle = Troponin, cardiac muscle (Homo sapiens, UniProt P19429+P45379+P63316); experiment: Fluorescence-based biochemical high throughput dose response assay for activators of the calcium sensitivity of cardiac Regulated Thin Filaments (RTF). [Related pubchem assays (depositor defined):AID493008, AID493018, AID504382, AID504383]; assay type: protein-complex assay
Oxytocin receptor = Oxytocin receptor (Homo sapiens, UniProt P30559); experiment: Fluorescence-based cell-based high throughput dose response assay for potentiators of Oxytocin Receptor (OXTR). [Related pubchem assays: 434985 (Confirmation screen (OXTR potentiators in triplicate)), 2481 (Summary (OXTR potentiators)), 2445 (Primary screen (OXTR potentiators in singlicate))]; assay type: functional
Oxytocin receptor, sequence (P30559 whole entry): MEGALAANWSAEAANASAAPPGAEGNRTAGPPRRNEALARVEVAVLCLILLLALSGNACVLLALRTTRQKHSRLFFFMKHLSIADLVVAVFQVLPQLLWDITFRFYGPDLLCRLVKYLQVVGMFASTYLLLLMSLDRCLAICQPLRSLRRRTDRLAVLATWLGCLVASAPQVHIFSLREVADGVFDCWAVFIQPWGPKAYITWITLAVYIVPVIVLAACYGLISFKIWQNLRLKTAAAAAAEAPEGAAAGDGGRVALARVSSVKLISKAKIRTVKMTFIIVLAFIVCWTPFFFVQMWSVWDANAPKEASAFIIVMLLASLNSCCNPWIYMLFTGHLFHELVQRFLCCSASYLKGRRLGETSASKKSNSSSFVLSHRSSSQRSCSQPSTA

[14] = mitochondrial function rescue without frataxin homolog – Friedreich's ataxia, plus single-dose screen, dose response (AID 1465); assay type: functional;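 also: yeast depleted of Yfh1p frataxin homolog grown on glycerol needing respiration; WST-1 tetrazolium dye reduction as measure of cellular dehydrogenase metabolic activity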
Nonstructural protein 1 = Nonstructural protein 1 (Influenza A virus, UniProt Q194T2); assay type: functional, Influenza A virus (A/California/07/2009(H1N1))
Nonstructural protein 1, sequence (Q194T2 whole entry, canonical isoform): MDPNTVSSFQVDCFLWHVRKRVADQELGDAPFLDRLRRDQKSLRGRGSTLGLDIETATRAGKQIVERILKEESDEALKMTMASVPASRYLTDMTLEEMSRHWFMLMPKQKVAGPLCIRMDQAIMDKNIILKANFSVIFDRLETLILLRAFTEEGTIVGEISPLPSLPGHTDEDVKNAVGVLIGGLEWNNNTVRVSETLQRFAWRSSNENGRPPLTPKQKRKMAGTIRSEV

[15] = molecular target: T3, Low molecular weight phosphotyrosine protein phosphatase (Homo sapiens, UniProt P24666); experiment: inhibition of human LMPTP enzyme activity – biochemical, absorbance, pNPP substrate, LMPTP-A isoform, set 2, orthogonal assay, dose response (AID 743308); assay type: functional
T3 sequence (P24666 whole entry): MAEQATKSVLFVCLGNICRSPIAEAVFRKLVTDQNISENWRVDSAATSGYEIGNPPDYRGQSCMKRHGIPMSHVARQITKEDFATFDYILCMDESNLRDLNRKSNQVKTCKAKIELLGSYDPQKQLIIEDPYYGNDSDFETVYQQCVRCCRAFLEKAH

[16] = molecular target: T3, Low molecular weight phosphotyrosine protein phosphatase; experiment: inhibition of LMPTP-A enzymatic activity – biochemical, OMFP substrate, fluorescence intensity, set 2, dose response (AID 743307); assay type: functional
[17] = CellTiter-Glo luminescence survival assay, SW480 colon tumor line, concentration-response curve, half-maximal inhibitory concentration (AID 1117338); assay type: functional
[18] = Reduced DLD-1 viability, concentration-response, CellTiter-Glo luminescence (AID 1117352); assay type: functional
[19] = cytotoxicity toward HT-29 cells – cell-based, CellTiter-Glo luminescence, IC50, dose response (AID 1117330); assay type: functional
[20] = viability of HCT116 lacking mutant beta-catenin – cell-based, human colon tumor, dose response (AID 1045); assay type: functional;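 also: HCT116 colon tumor cells with beta catenin knocked out; cells exposed to compound for 60 hours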
[21] = viability of PTEN-deleted HCT116 cells – cell-based, HCT116 PTEN knockout, dose response (AID 1047); assay type: functional;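 also: HCT116 colon tumor cells with PTEN knocked out; cells exposed to compound for 60 hours before readout; potency for loss of cell viability measured by luminescence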
[22] = cytotoxicity toward Colo320 cells – cell-based, CellTiter-Glo luminescence, IC50, dose response (AID 1117334); assay type: functional; conditions: COLO 320
[23] = SNU-C1 cell viability reduction, dose response, CellTiter-Glo luminescence (AID 1117323); assay type: functional, cell-based
[24] = RKO cell viability reduction, dose response, CellTiter-Glo luminescence (AID 1117322); assay type: functional
[25] = cytotoxicity toward HCT116 cells – cell-based, CellTiter-Glo luminescence, IC50, dose response (AID 1117332); assay type: functional; conditions: HCT-116
[26] = glucagon-like peptide-1 release potency in STC-1, concentration-response, half-maximal inhibitory concentration in the STC-1 line (AID 1117345); assay type: functional, cell-based
[27] = Potency on glucagon-like peptide 1 release, dose-response in NCI-H716 cell line, half maximal inhibitory concentration (AID 1117344); assay type: functional, cell-based
[28] = molecular target: Heat shock protein HSP 90-alpha (Homo sapiens, UniProt P07900); assay type: functional, organism-based

Question: Which IC50 [1] does the source give for `COc1ccc(NC(=O)CSc2nnc(-c3cccs3)n2-c2ccccc2)cc1` here?
Answer: 2.16 µM (active)

Question: And the IC50 [2]?
Answer: 2.09 µM (active)

Question: With `CCOC(=O)C1=C(Cc2ccc(C)cc2)C(=O)c2ccccc2C1=O` as the compound, how does the IC50 [3] read?
Answer: > 128 µM (inactive)

Question: What about the EC50 [4] of the same compound?
Answer: 6.54 µM (active)

Question: What about the EC50 [5] of the same compound?
Answer: 4.1 µM (active)

Question: And the EC50 (Streptococcus)?
Answer: 6.91 µM (active)

Question: For `Cc1nnc(SCC(=O)Nc2ccc(-c3nc4ccccc4s3)cc2)s1`, which IC50 [6] is on record?
Answer: > 55.7 µM (not active)

Question: With `c1ccc2c3nc[nH]c(NCC4CCCO4)c-3nc2c1` (centres undefined) as the compound, how does the IC50 (Galanin receptor type 2) read?
Answer: > 42 µM (not active)

Question: With `Cn1nnc(NC(=S)NC(=O)c2ccc(-c3ccc(Br)cc3)o2)n1` as the compound, how does the IC50 [7] read?
Answer: > 100 µM (active)

Question: Which results are given for `N#Cc1c(NC(=O)C2CC=CCC2C(=O)O)sc2c1CCCCCC2` (centres undefined)?
Answer: IC50 (Aspartyl aminopeptidase): > 73.5 µM (not active); IC50 (Leucine aminopeptidase): < 1 µM (active); IC50 (Procathepsin L): > 59.6 µM (not active)

Question: Which IC50 [8] does the source give for `Cc1cc(C(=O)CSc2nc3ccccc3c(=O)n2C)c(C)n1CC1CCCO1` (centres undefined) here?
Answer: > 35 µM (not active)

Question: And the IC50 [9]?
Answer: > 50 µM (not active)

Question: And the IC50 [10]?
Answer: > 50 µM (not active)

Question: Which results are given for `Clc1ccc(-n2nnc(-c3cccnc3Cl)n2)cn1`?
Answer: IC50 (Bcl-2-related protein A1 [11]): > 100 µM (not active); IC50 (Bcl-2-related protein A1 [12]): > 100 µM (not active)

Question: With `CCOc1ccc(-n2c(SCC(=O)Nc3cc(OC)c([N+](=O)[O-])cc3C)nc3ccccc32)cc1` as the compound, how does the IC50 [13] read?
Answer: 43 µM (active)

Question: For `COc1ncnc2c1N=C1CC(C)(C)CC(N)=C1S2`, which IC50 (14-3-3 protein gamma) is on record?
Answer: 30 µM (active)

Question: And the EC50 (Troponin, cardiac muscle)?
Answer: > 7.94 µM (active)

Question: Which EC50 (Oxytocin receptor) does the source give for `CCOc1ccc(-c2c(C(=O)N/N=C/c3ccc(Cl)cc3)nnn2-c2nonc2N)cc1` here?
Answer: > 29.9 µM (not active)

Question: Which EC50 [4] does the source give for `COc1cc([N+](=O)[O-])cc(/C=N/NC(=O)c2ccc(C)nc2)c1O` here?
Answer: 2.62 µM (active)

Question: What about the EC50 (Streptococcus) of the same compound?
Answer: 2.22 µM (active)

Question: And the EC50 [14]?
Answer: > 100 µM (active)

Question: And the IC50 (Nonstructural protein 1)?
Answer: 5.49 µM (active)

Question: With `c1ccc(-c2cc(SCCCN3CCCCC3)c3ccccc3n2)cc1` as the compound, how does the IC50 [15] read?
Answer: > 80 µM (inactive)

Question: What about the IC50 [16] of the same compound?
Answer: 66.9 µM (inactive)

Question: Which results are given for `Oc1ccc(Cl)cc1Cc1cc(Cl)ccc1O` [DICHLOROPHEN]?
Answer: IC50 [17]: 2.5 µM (active); IC50 [18]: 0.862 µM (active); IC50 [19]: 4.69 µM (active); EC50 [20]: 16.4 µM (active); EC50 [21]: 15.7 µM (active); IC50 [22]: 1.21 µM (active); IC50 [23]: 0.546 µM (active); IC50 [24]: 1.93 µM (active); IC50 [25]: 1.55 µM (active); IC50 [26]: > 40 µM (inactive); IC50 [27]: 15.6 µM (inactive); AC50 [28]: 8 µM (active)
